From article PMC12866823, “The Pivotal Role of GR‐CAR Pathway in Fetal Programming of Hepatic Cytochrome P450 3A Alteration in Adulthood” (Advanced Science, 2025)

What was measured:
[1] = test system: bone marrow mesenchymal stem cells hepatoid differentiated cell (BHDC); test: Treatment of BHDC: mRNA, protein, ChIP-PCR and CoIP readouts; type: cell-based, rat; details: for interaction between GR and P300/CBP (co-immunoprecipitation): 500 x 10^-9 M DEX or 1200 x 10^-9 M CORT; for gene and protein expression of P300/CBP, binding of GR-P300/CBP to CAR promoter, acetylation levels of H3K9 and H3K27: dose-dependent
Description: Protocols for preparing BMSCs and the hepatoid‐differentiated cells (BHDCs) were based on our prior study.^[ [98] ^] BMSCs were harvested from PW3 male rats and cultured at a density of 4 × 10^5 cells per well in six‐well plates with growth medium (αMEM with 10% fetal bovine serum (FBS), […] streptomycin, and 100 U mL^−1 penicillin).
All primers are listed in Table S2 (Supporting Information).
Results were quantified using Image J Launcher.
Cells were cross‐linked with 1% formaldehyde at room temperature, and glycine (final concentration 125 × 10^−3 M) was added to terminate the reaction.^[ [105] ^] The suspensions were sonicated to obtain 200‐800 bp DNA fragments, and then were incubated with Agarose‐protein A/G beads and divided into multiple portions. Corresponding antibodies (H3K9ac, H3K14ac, H3K27ac, H3K4me2, H3K27me3, GR, and CAR) and IgG were added and shaken overnight at 4 °C for immunoprecipitation, followed by the addition of 200 µg mL^−1 proteinase K at 65 °C overnight. DNA was isolated from each immunoprecipitation and subjected to RT‐qPCR analysis. The Jaspar database was consulted to query gene transcription binding sites.^[ [107] ^] Primers for amplification of multiple regions of the CAR promoter were designed using the UCSC Genome Browser (http://genome.ucsc.edu/) and Primer 3 Input Browser (http://primer3.ut.ee/). The primer sequences are listed in Table S4 (Supporting Information). Data from RT‐qPCR were used to calculate the abundance of proteins enriched in the promoters of each gene using the following formula: IP/input = 100 × 2^Ct input DNA – Ct IP DNA.
Tissue and cell lysates were collected, and protein concentrations were quantified using a BCA protein quantification kit. Protein A agarose gel beads (20 to 40 µL) were washed 2 to 3 times with lysis buffer and centrifuged at 3000 rpm for 5 min each time. Between 500 and 1000 µL of homogenized lysis supernatant from tissues or cells were transferred to a clean EP tube, and 1–10 µL of specific primary antibody was added to incubate overnight at 4 °C. IgG from the same species served as a negative control. Subsequently, 20 µL of A/G agarose gel beads were added, and the mixture was incubated for 3‐4 h at 4 °C. After incubation, the sample was centrifuged at 1000 g for 5 min at 4 °C to collect the immunoprecipitated complexes; the mixture was then washed 3‐4 times with 1 mL ice‐cold IP lysate (without protease inhibitor) by centrifugation at 3000 g for 5 min. Following the final wash, 40 µL of 1 × SDS loading buffer containing mercaptoethanol was added, boiled for 10 min at 100 °C, centrifuged at 1000 g for 5 min at 4 °C, and 15–20 µL of supernatant was used for WB assay.

[2] = test system: rat fetal primary hepatocytes; test: Treatment of rat fetal primary hepatocytes: mRNA and protein expression; type: cell-based; details: DEX 20-500 x 10^-9 M or CORT 300-1200 x 10^-9 M, concentration-dependent
Description: (§1) Cells and liver samples were subjected to RNA isolation using a TRIZOL reagent. Process of RNA extraction and cDNA preparation was according to our prior work.^[ [103] ^] qPCR was performed using the Cham Q TM Universal SYBR® qPCR Master Mix on the QuantStudio®5 Real‐Time PCR System (Thermo Scientific, Waltham, MA, USA) for detection. All primers are listed in Table S2 (Supporting Information). Target gene expression was standardized using housekeeping gene and computed using the 2^−ΔΔCt methodology. For the gene expression levels assayed in each tissue of fetal mice, n indicates a litter (with each n ranging from 11‐12).
(§2) Total protein was extracted from the liver and cells using RIPA lysis buffer, and protein concentration was determined using a bicinchoninic acid (BCA) assay. Nuclear proteins were extracted using the Nuclear Protein Extraction Kit (no. P0028, Beyotime Institute of Biotechnology, Shanghai, China).^[ [104] ^] To verify the purity of extracted cellular fractions, we examined the levels of cytoplasmic localization proteins (ACTB and GAPDH) and nuclear localization protein (H3) in cytoplasmic and nuclear samples, respectively. […] Details of the western blot procedure have been described previously.^[ [105] ^] […] Results were quantified using Image J Launcher.

HepG2 = test: Treatment of HepG2 with hydrocortisone; type: cell-based, human
Description: as §1
as §2, with “Launcher. […]” for “Launcher.”

LS174T = test: Treatment of LS174T with hydrocortisone; type: cell-based, human
Description: as §1
as §2, with “Launcher. […]” for “Launcher.”

GR = test: Dual-luciferase assay of transcriptional function of GR on CAR; type: cell-based, human; details: with DEX treatment
Description: The dual‐luciferase reporter plasmid of pTol2‐cmv‐Fluc‐bGH polyA‐EF1α‐Rluc‐polyA was synthesized by Tsingke company and worked as a positive control. Overlapping PCR was performed to generate insert of the target gene promoter base on HepG2 genomic DNA template. Employing Hifi assembly kit, promoter fragments were inserted into SpeI/NtoI site of reporter vector, and coding sequences were inserted into XbaI/XhoI site of pTol2‐EGFP‐polyA plasmid. 48 h after transfection, cells were collected for dual‐luciferase assay according to Promega luciferase kit instructions. The primers for overlap PCR are listed in Table S5 (Supporting Information).

[3] = DEX 20-500 x 10^-9 M or CORT 300-1200 x 10^-9 M
[4] = 0, 300, 600, 1200 nM, concentration-dependent
[5] = 500 x 10^-9 M DEX with 10 x 10^-6 M RU486 or 100 x 10^-9 M GR siRNA

With `C=C1[C@@H](O)[C@@H]2O[C@]3(CC[C@H](/C=C/[C@@H](C)[C@@H]4CC(C)=C[C@@]5(O[C@H](C[C@@](C)(O)C(=O)O)CC[C@H]5O)O4)O3)CC[C@H]2O[C@@H]1[C@@H](O)C[C@H](C)[C@H]1O[C@@]2(CCCCO2)CC[C@H]1C` [OA, okadaic acid] the “effect on DEX-enhanced total and nuclear protein levels of CAR” value ([1]; 10 x 10^-9 M OA with DEX) was “reversed” and the “expression of downstream CYP3A and CYP2B” value ([1]; 10 x 10^-9 M OA with or without DEX) was “significantly reduced the expression of downstream CYP3A and CYP2B with or without DEX incubation”.

With `C[C@]12C[C@H](O)[C@H]3[C@@H](CCC4=CC(=O)CC[C@@]43C)[C@@H]1CC[C@@H]2C(=O)CO` [CORT, corticosterone] the “interaction between GR and P300/CBP (co-immunoprecipitation)” value [1] was “significantly enhanced”, the “CYP3A and CYP2B expression, gene and protein levels” value ([1]; DEX 20-500 x 10^-9 M or CORT 300-1200 x 10^-9 M, 24 h, concentration-dependent) was “significantly induced CYP3A and CYP2B expression at both the gene and protein levels” and the “gene and protein expression of P300/CBP, binding of GR-P300/CBP to CAR promoter, acetylation levels of H3K9 and H3K27” value [1, 3] was “significantly induced”. For the same compound, the “CYP3A and CYP2B expression, gene and protein levels” value [2] was “significantly induced CYP3A and CYP2B expression at both the gene and protein levels”.

`C[C@]12CCC(=O)C=C1CC[C@@H]1[C@@H]2[C@@H](O)C[C@@]2(C)[C@H]1CC[C@]2(O)C(=O)CO` [hydrocortisone] was tested, and the “expression of downstream genes” value (HepG2; [4]) was “could significantly induce the expression of downstream genes”, the “related indicators and nuclear translocation of GR and CAR” value (HepG2; 1200 x 10^-9 M) was “significantly increased” and the “expression of downstream genes” value (LS174T; [4]) was “could significantly induce the expression of downstream genes”. For the same compound, the “related indicators and nuclear translocation of GR and CAR” value (LS174T; 1200 x 10^-9 M) was “significantly increased”.

In the case of `C[C@@H]1C[C@H]2[C@@H]3CCC4=CC(=O)C=C[C@]4(C)[C@@]3(F)[C@@H](O)C[C@]2(C)[C@@]1(O)C(=O)CO` [DEX, dexamethasone], the “interaction between GR and P300/CBP (co-immunoprecipitation)” value [1] is reported as “significantly enhanced” and the “gene and protein expression of P300/CBP, binding of GR-P300/CBP to CAR promoter, acetylation levels of H3K9 and H3K27” value [1, 3] is reported as “significantly induced”.

In the case of `CC#C[C@]1(O)CC[C@H]2[C@@H]3CCC4=CC(=O)CCC4=C3[C@@H](c3ccc(N(C)C)cc3)C[C@@]21C` [RU486, mifepristone], the “effect on GR protein nuclear translocation and CYPs expression induced by DEX” value ([1]; 10 x 10^-6 M with 500 x 10^-9 M DEX) is reported as “significantly inhibited protein nuclear translocation of GR and expression of CYPs induced by DEX treatment”, the “effect on CAR induction by DEX” value [1, 5] is reported as “suppressed” and the “effect on DEX induction of P300/CBP expression, P300/CBP binding to CAR promoter and H3K9/H3K27 acetylation” value [1, 5] is reported as “reversed the induction of P300/CBP expression, the binding of P300/CBP to the CAR promoter, and the acetylation levels of H3K9 and H3K27 by DEX”. The “effect on transcriptional activity of GR (on CAR) induced by DEX” value (GR) was “blocked transcriptional activity of GR induced by DEX”.
